Test results: patent publication US20190307729A1, “ANTIMICROBIAL COMPOUNDS AND METHODS FOR USE THEREOF” (VERSITECH LIMITED, priority 2016, published 2019)
Like-named read-outs stand apart in the source and are kept apart here.

System: S. aureus Mu3
Test: Secondary screening of compound 13 analogues in combination with gentamicin (growth by OD 595 nm)
Settings: for 20 μM + 200 μg/ml Gentamicin Growth inhibition Percentage: 20 μM compound + 200 μg/ml gentamicin; for inhibition at 50 µM / activity at 5 µM / activity at 20 µM / activity at 50 µM / inhibition at 20 µM: Staphylococcus aureus; for activity at 5 µM / activity at 20 µM / activity at 50 µM: MU3, 16 h; for 50 μM + 200 μg/ml Gentamicin Growth inhibition Percentage: 50 μM compound + 200 μg/ml gentamicin
[1] = MU3, read-out: 50 μM + 200 μg/ml Gentamicin Growth inhibition Percentage, 50 μM compound + 200 μg/ml gentamicin, S. aureus Mu3
[2] = [Cpd] 5 μM, BHI only (no gentamicin), relative to DMSO = 1
[3] = [Cpd] 5 μM, [Genta] 100 ug/ml, relative to DMSO = 1
[4] = [Cpd] 5 μM, [Genta] 200 ug/ml, relative to DMSO = 1
[5] = [Cpd] 20 μM, BHI only (no gentamicin), relative to DMSO = 1
[6] = [Cpd] 20 μM, [Genta] 100 ug/ml, relative to DMSO = 1
[7] = [Cpd] 20 μM, [Genta] 200 ug/ml, relative to DMSO = 1
[8] = [Cpd] 50 μM, BHI only (no gentamicin), relative to DMSO = 1
[9] = [Cpd] 50 μM, [Genta] 100 ug/ml, relative to DMSO = 1
[10] = [Cpd] 50 μM, [Genta] 200 ug/ml, relative to DMSO = 1
[11] = read-out: relative growth, [Cpd] 5 μM, BHI only (no gentamicin), relative to DMSO = 1
[12] = read-out: relative growth, [Cpd] 20 μM, BHI only (no gentamicin), relative to DMSO = 1
[13] = read-out: relative growth, [Cpd] 50 μM, BHI only (no gentamicin), relative to DMSO = 1
[14] = MU3, read-out: 20 μM + 200 μg/ml Gentamicin Growth inhibition Percentage
[15] = MU3, read-out: 50 μM + 200 μg/ml Gentamicin Growth inhibition Percentage

Description: All screening is done in 384-well polystyrene microtiter plates (Greiner Bio-One). Overnight culture of Mu3 is washed with BHI medium 3 times, diluted and plated to give 5×10^5 CFU/mL per well. The plates are incubated at 37° C. for 16 hours and growth is monitored by optical density reading at 595 nm using an automated DTX 880 multimode detector. Screening using BHI medium is designated as the background screen. […] Sub MIC concentration of antibiotics is selected for screening. BHI containing a final concentration for gentamicin 156.25 μg/mL is used correspondingly for individual experiments. […] Screening results with various antibiotics is normalized with the background screening to calculate the percentage of growth inhibition.
Identical experimental procedures are performed as primary screening procedures, except different concentrations of selected compound are tested.
Secondary like screening was performed with different concentrations of each analogue compounds were tested with different gentamicin concentration, 50 μM, 20 μM and 5 μM compound concentration were used against, BHI containing, 0 μg/ml, 100 μg/ml and 200 μg/ml gentamicin.

SMILES	relative growth [3]	relative growth [4]	relative growth [6]	relative growth [7]	relative growth [9]	relative growth [10]	activity at 5 µM (read-out: relative growth)	activity at 20 µM (read-out: relative growth)	activity at 50 µM (read-out: relative growth)	inhibition at 20 µM [14]	inhibition at 50 µM [15]	also measured
COC(=O)c1ccccc1 [Compound 2]	1.1	1.2	0.93	0.65	0.62	*0.24						20 μM + 200 μg/ml Gentamicin Growth inhibition Percentage (S. aureus Mu3, 20 µM): 35%; inhibition at 50 µM [1]: 76%; relative growth [2]: 1.15; relative growth [5]: 1.08; relative growth [8]: 1.07
COCc1ccccc1 [Compound 52]	0.96	0.93	0.89	0.69	0.74	*0.36						activity at 5 µM [11]: 95%; activity at 20 µM [12]: 86%; activity at 50 µM [13]: 76%; inhibition at 20 µM (MU3, read-out: 20 μM + 200 μg/ml Gentamicin Growth inhibition Percentage, 20 μM compound + 200 μg/ml gentamicin, S. aureus Mu3): 31%; inhibition at 50 µM [1]: 64%
O=C(O)CN1C(=O)/C(=C/c2cccc(OCc3ccccc3F)c2)SC1=S [Compound 63]	0.97	0.88	0.67	*0.35	*0.11	*0.08	97%	93%	84%	65%	92%	
CCOc1ccc(/C=C2\SC(=S)N(CC(=O)O)C2=O)cc1 [Compound 31]	0.98	0.95	0.98	0.77	0.98	0.61	99%	96%	98%	23%	39%	
CCOc1cc(/C=C2\SC(=S)N(CC(=O)O)C2=O)ccc1OCc1ccc(Cl)c(Cl)c1 [Compound 34]	0.9	*0.24	0.67	*0.33	1.16	0.57	112%	109%	113%	67%	43%	
COc1ccc(/C=C2\SC(=S)N(CC(=O)O)C2=O)cc1OCc1ccc(Cl)cc1Cl [Compound 18]	0.97	0.9	0.8	0.76	0.88	0.7	98%	85%	97%	24%	30%	
COc1ccc(/C=C2\SC(=S)N(CC(=O)O)C2=O)cc1OCc1ccccc1 [Compound 24]	0.94	0.95	0.92	0.73	0.72	*0.32	96%	93%	92%	27%	68%	
CC(C(=O)O)N1C(=O)/C(=C/c2ccc(Cl)cc2)SC1=S (centres unmarked) [Compound 53]	0.92	0.89	0.9	0.76	0.84	*0.38	93%	89%	88%	24%	62%	
O=C(O)CN1C(=O)/C(=C/c2ccccc2)SC1=S [Compound 1]	1.29	1.45	1.1	1.05	1.11	1.01						relative growth [2]: 1.38; relative growth [5]: 1.22; relative growth [8]: 1
COC(=O)CN1C(=O)C(=Cc2ccc(OCc3ccccc3)cc2)SC1=S [Compound 69]	0.97	0.98	0.56	*0.11	*0.27	*0.23						20 μM + 200 μg/ml Gentamicin Growth inhibition Percentage (S. aureus Mu3): 89%; 50 μM + 200 μg/ml Gentamicin Growth inhibition Percentage (S. aureus Mu3): 77%; relative growth [2]: 0.97; relative growth [5]: 1.02; relative growth [8]: 0.55
COc1cc(/C=C2\SC(=S)N(CC(=O)O)C2=O)ccc1OCc1ccccc1F [Compound 25]	0.95	0.92	0.89	0.62	0.91	0.42	96%	91%	95%	38%	58%	
COc1cc(/C=C2\SC(=S)N(CC(=O)O)C2=O)ccc1OCc1ccc(Cl)cc1 [Compound 6]	1.13	1.11	0.61	*0.1	*0.2	*0.11	120%	114%	79%	90%	89%	
COc1cc(/C=C2\SC(=S)N(CC(=O)O)C2=O)ccc1OCc1ccc(Br)cc1 [Compound 44]	1.02	0.83	0.99	0.83	0.97	0.47	103%	103%	98%	17%	53%	
COc1cc(/C=C2\SC(=S)N(CC(=O)O)C2=O)ccc1OCc1ccccc1 [Compound 22]	1.08	1.05	0.99	0.88	0.91	0.52	108%	101%	94%	12%	48%	
COC(=O)c1ccccc1 [Compound 29]	0.94	0.89	0.67	*0.39	*0.11	*0.08						20 μM + 200 μg/ml Gentamicin Growth inhibition Percentage (S. aureus Mu3, 20 µM): 61%; 50 μM + 200 μg/ml Gentamicin Growth inhibition Percentage (S. aureus Mu3, 50 µM): 92%; activity at 5 µM [11]: 96%; activity at 20 µM [12]: 90%; activity at 50 µM [13]: 89%
COc1cc(C=C2SC(=S)N(CC(=O)O)C2=O)ccc1OCc1ccc(F)cc1Cl [Compound 50]	0.91	0.87	0.82	0.64	0.9	0.6						20 μM + 200 μg/ml Gentamicin Growth inhibition Percentage (S. aureus Mu3): 36%; 50 μM + 200 μg/ml Gentamicin Growth inhibition Percentage (S. aureus Mu3): 40%; relative growth [2]: 0.93; relative growth [5]: 0.82; relative growth [8]: 0.96
COc1ccc(/C=C2\SC(=S)N(CC(=O)O)C2=O)cc1OCc1ccc(Cl)cc1 [Compound 15]	1.01	1	0.52	*0.09	*0.18	*0.11	102%	97%	79%	91%	89%	
